According to patent US20080306248A1, “Conjugate of Biomacromolecule with Bioreductive and Preparative Method Thereof” (priority 2005, published 2008):
≈ marks a conversion by molar mass, not a printed value.

Tests used:
SMMC-7721 = assay: MTT cytotoxicity assay, SMMC-7721 cells; type: cell-based
Description: (§1) Conjugate cytotoxicity was assessed using an MTT assay. Cells (SMMC-7721, L-02, etc.) were seeded at a density of 1×10^4 cells/well […] to the assay. At the start of the experiment the culture medium was removed and the conjugate (0-2 mg/lnl in complete medium) was added (100 ul). After 4 h, MTT (20 ul; 5 mg/ml in PBS) was added and the plates re-incubated for a further 5 h. the formazan crystals were dissolved in DMSO and the absorbance read at 550 nm using a microtitre plate reader. The results were expressed as viability(%) relative to a control containing no conjugate.

L-02 = assay: MTT cytotoxicity assay, L-02 cells; type: cell-based; conditions: concentration of MMC or conjugate up to 8 ugMMC/ml
Description: as §1

Description for Caco-2 cell monolayers: The transcellular transport of conjugate was evaluated using Caco-2 cell monolayers. Caco-2 cells were maintained in plastic culture flasks. These stock cells were subcultivated before reaching confluence. The medium consisted of Dulbecco's Modified Eagle's Medium supplemented with 10% fetal bovine serum, 1% nonessential amino acid, 2 mM L-glutamine and 100 IU/mL penicillin-10 ug/mL streptomycin. The monolayer cultures were grown in an atmosphere of 5% CO2-95% O2 at 37° C. The cells were given fresh growth medium every 2 days. When the Caco-2 cells had reached confluence, they were harvested with 0.25 mM trypsin and 0.2% EDTA (0.5-1 min at 37° C.), resuspended, and seeded into a new flask, Caco-2 cells were used between passages 45 and 60. For the transport study, Caco-2 cells were seeded at a cell density of 8×10^4 cells/cm^2 on 6-well (3-mm pores, 4.71-cm^2 growth area) Transwell™. The cell monolayers were fed a fresh growth medium every 2 days and were used at 16 to 21 days for the transport experiments. TEER was used to monitor the integrity of the monolayers. Monolayers with TEER above 350/cm^2 (after subtracting the back group value of the transwell) were used in the study.

| Compound | IC50 (SMMC-7721; Homo sapiens, SMMC-7721, viability relative to control containing no conjugate) [µg/mL] | viability of L-02 (L-02) | IC50 to SMMC-7721 (SMMC-7721; viability relative to control containing no conjugate) [ug MMC/ml] | transcellular transport by caco-2 cells (transport fraction) (Caco-2 cell monolayers) |
| --- | --- | --- | --- | --- |
| CO[C@@]12[C@H](COC(N)=O)C3=C(C(=O)C(C)=C(N)C3=O)N1C[C@@H]1N[C@@H]12 [MMC, mitomycinC, reference compound] | 1.6 (≈ 4.79 µM) | unchanged |  |  |
| Fe-transferrin-MMC |  | unchanged | 0.5 | 20 % of total drug |
